# Values quoted from earlier work in paper PMC10721898, “C5 methylation confers accessibility, stability and selectivity to picrotoxinin” (Nature Communications, 2023).
# Columns and labels:
# [1] = D2O, 8.2 pH*; previously observed; cited from earlier work
# rat GABAA ion channel = details: preliminary screen; read-out: IC50, competition with [3H]TBOB for binding to rat cerebral cortex; cited from earlier work
# [2] = reversible solvolysis; cited from earlier work
Structure (SMILES),t1/2 of degradation (pseudo-first order) [1] [h],IC50 (rat GABAA ion channel) [nM],half-life in mouse plasma [2]
"C=C(C)C1C2OC(=O)C1(C)C1(O)CC3OC34C(=O)OC2C41C (stereo not shown) [5MePXN, 5-methylpicrotoxinin]",120,2100 ± 300,–
"C=C(C)[C@@H]1[C@H]2OC(=O)[C@@H]1[C@]1(O)C[C@H]3O[C@]34C(=O)O[C@H]2[C@]14C [PXN, picrotoxinin]",60,–,~ 1 h
